No end group written: not given here.
Tests used:
IL-3 = molecular target: T1, IL-3 (Mus musculus, UniProt P01586); assay: PT-18β proliferation assay (WST-1), IL-3 (non γc-cytokine control); assay type: cell-based; settings: PT-18β cells, 1 nM IL-3, BNZ-γ from HEK293T supernatant 1:20 or 1:50, 2 days
T1 sequence (P01586 27-166): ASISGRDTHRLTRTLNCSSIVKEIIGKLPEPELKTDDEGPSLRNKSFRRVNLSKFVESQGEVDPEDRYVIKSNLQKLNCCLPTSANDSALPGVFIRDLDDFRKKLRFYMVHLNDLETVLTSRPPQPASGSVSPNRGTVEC
From the text: (§1) For each of the six γc-cytokines, indicator cell lines: CTLL-2, a murine CD8 T cells line available from American Type Culture Collection, and PT-18, a murine mast cell line and its subclone PT-183, is transfected with human IL-2Rβ gene to make the cells responsive to IL-2 and IL-15 (Tagaya et al., 1996, EMBO J. 15:4928-39), and is used to quantitatively determine the γc-cytokine's growth-promoting activity (See Current protocols in Immunology from Wiley and Sons for a methodological reference). […] Once the appropriate doses of the cytokine that yield the 50% and 95% maximum response from the indicator cell line is determined, various concentrations (ranging from 1 pM to 10 μM) of the purified or synthesized custom derivative peptide is added to each well containing the cytokine and indicator cells. The reduction in light absorbance at 450 nm is used as an indicator of inhibition of cytokine-stimulated cellular proliferation. Typically, the cells are stimulated by the cytokines such that the absorbance of the well containing indicator cell line and the cytokine is between 2.0 and 3.0, which is reduced to a range of 0.1 to 0.5 by the addition of inhibitory peptides.
(§2) The growth-responses of the cells were determined 2 days after the introduction of BNZ-γ peptide and the cytokine using the WST-1 assay. […]

IL-4 = molecular target: T2, IL-4 (Mus musculus, UniProt P07750); assay: PT-18β proliferation assay (WST-1), IL-4; assay type: cell-based; settings: PT-18β cells, 1 nM IL-4, BNZ-γ from HEK293T supernatant 1:20 or 1:50, 2 days
T2 sequence (P07750 21-140): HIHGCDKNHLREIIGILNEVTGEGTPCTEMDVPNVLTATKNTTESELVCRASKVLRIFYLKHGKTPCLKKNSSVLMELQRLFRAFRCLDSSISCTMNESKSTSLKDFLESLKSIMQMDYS
From the text: as §1, §2

IL-2 = assay: PT-18 proliferation assay, IL-2 (FIG. 3A legend); assay type: cell-based
Experimental: The growth-responses of the cells were determined 2 days after the introduction of BNZ-γ peptide and the cytokine using the WST-1 assay. […] Cellular proliferation stimulated by IL-4, another γc-cytokine, was not affected by the by the addition of BNZ-γ peptide. Results for IL-3, IL-9, IL-15, and IL-4 are shown at FIG. 3A.

IL-9 = molecular target: T3, IL-9 (Mus musculus, UniProt P15247); assay: PT-18β proliferation assay (WST-1), IL-9; assay type: cell-based; settings: PT-18β cells, 1 nM IL-9, BNZ-γ from HEK293T supernatant 1:20 or 1:50, 2 days
T3 sequence (P15247 19-144): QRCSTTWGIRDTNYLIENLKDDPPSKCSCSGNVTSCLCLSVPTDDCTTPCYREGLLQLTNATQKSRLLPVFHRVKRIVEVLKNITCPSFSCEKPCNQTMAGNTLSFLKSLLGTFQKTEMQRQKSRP
From the text: as §1, §2

[1] = tested on: IL-15-mediated tyrosine-phosphorylation of STAT5; assay: IL-15-mediated tyrosine phosphorylation of STAT5 in PT-18β cells (immunoblot); assay type: cell-based, murine; settings: PT-18β cells stimulated by IL-15, anti-phospho-STAT5 immunoblot
From the text: In addition to stimulating cellular proliferation, binding of the γc-cytokines to their receptors causes a diverse array of intracellular events. (Rochman et al. 2009 Nat. Rev. Immunol. 9:480-90, Pesu et al. 2005 Immunol. Rev. 203:127-142.) Immediately after the cytokine binds to its receptor, a tyrosine kinase called Jak3 (Janus-kinase 3) is recruited to the receptor at the plasma membrane. This kinase phosphorylates the tyrosine residues of multiple proteins including the γc-subunit, STAT5 (Signal Transducer and Activator of Transcription 5) and subunits of the PI3 (Phosphatidylinositol 3) kinase. Among these, the phosphorylation of STAT5 has been implicated in many studies as being linked to the proliferation of cells initiated by the γc-cytokine. (Reviewed in Hennighausen and Robinson, 2008 Genes Dev. 22:711-21.) In accordance with these published data, whether or not the BNZ-γ peptide inhibits the tyrosine phosphorylation of STAT5 molecule in PT-18β cells stimulated by IL-15 was examined (results shown in FIG. 3C).
PT-18β cells were stimulated by IL-15 in the presence or absence of BNZ-γ peptide. Cytoplasmic proteins were extracted from the cells according to a conventional method as described in Tagaya et al. 1996 EMBO J. 15:4928-39. […]

IL-15 = IL-15 (Homo sapiens, UniProt P40933); assay: PT-18β proliferation assay (WST-1), IL-15; assay type: cell-based; settings: PT-18β cells, 1 nM IL-15, BNZ-γ from HEK293T supernatant 1:20 or 1:50, 2 days
From the text: as §1, §2

γc-cytokines = assay: Target cytokine spectrum within the γc-family (summary statements); assay type: cell-based
[2] = tested on: T-cells in HAM/TSP culture
Experimental: Proliferation assays were performed on HAM/TSP patient blood samples with and without the addition of BNZ-γ. These assays evaluated the ability of BNZ-γ to block the function of cytokines, such as IL-2 and IL-15, present in the ex vivo HAM/TSP patient blood culture and prevent spontaneous T-cell proliferation in these samples.
In an ex vivo spontaneous T-cell proliferation assay, PBMC from HAM/TSP patient was cultured at 1×10(6) cells per well of a 96 well plate in RPMI-10% FCS. Increasing concentrations of BNZ-γ peptide were added to each well. […] The cells were incubated in a 37° C. CO2 incubator for 3, 4, and 6 days. The amount of 1 uCi of ^3H-thymidine was added to the cells. After an additional 6 hour incubation, cells were harvested their proliferation rate was measured.
Other immunological markers were additionally measured in this assay. […] The population of CD4+CD25+ cells, a marker of T-cell activation, as well as Ki67 staining, a marker of T-cell proliferation, was monitored in a flow cytometry assay.

IL-6 = assay: T1165 proliferation in the presence of IL-6 (Example 25); assay type: cell-based, human or mouse
Experimental: The BNZ130-1 polypeptide as presented in Table 2, above, is tested for its activity in inhibiting IL-6 activity. T1165 cells that are dependent on human or mouse IL-6 for their growth in vitro are selected. The cell line is cultured in the absence of IL-6, In the presence of IL-6, in the presence of BNZ130-1, and in the presence of IL-6 and BNZ130-1.

[3] = HAM/TSP peripheral blood ex vivo culture, flow cytometry

Chain of IL-15 (P40933 49-162): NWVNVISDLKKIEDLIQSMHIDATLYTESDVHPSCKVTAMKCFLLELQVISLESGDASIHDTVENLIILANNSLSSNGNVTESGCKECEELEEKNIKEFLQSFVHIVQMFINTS

I-K-E-F-L-Q-R-F-I-H-I-V-Q-S-I-I-N-T-S (IKEFLQRFIHIVQSIINTS) [BNZ-γ]
growth-promoting activity of IL-3 (non γc-cytokine) (IL-3): not inhibited | cellular proliferation stimulated by IL-4 (IL-4): not affected | IL-2 activity in PT-18 proliferation assay (IL-2): inhibition | growth-promoting activity of IL-9 (IL-9): significantly (p<0.01 Student's T test) reduced | tyrosine phosphorylation of STAT5 [1]: markedly reduced | growth-promoting activity of IL-15 (IL-15): significantly (p<0.01 Student's T test) reduced | γc-cytokines not inhibited (γc-cytokines): IL-4, IL-7 and IL-21 | γc-cytokines inhibited (γc-cytokines; BNZ132-2 and BNZ132-3 data not shown): IL-2, IL-15 and IL-9 | percent of live cells by Guava staining [2]: not impacted | concentration at which spontaneous proliferation of T-cells is inhibited ([2]; HAM/TSP patient PBMC, 3, 4 and 6 days, 3H-thymidine): about 1 ug/ml | population of CD4+CD25+ cells [2, 3]: diminished | population of CD4+Ki67 cells [2, 3]: reduced

LTHLIERSSRAVLQSLLRASRQ [BNZ130-1]
effect on T1165 survival (IL-6; Example 25, with or without IL-6): does not affect | antagonistic activity on T1165 proliferation in the presence of IL-6 (IL-6; Example 25, written in present tense): dose-dependent antagonistic activity

From US10808009B2, “Peptide conjugates” (BIONIZ, LLC, priority 2011, dated 2020)
